Measured values as given in ChEMBL document CHEMBL4382216, “Asymmetric synthesis and biological evaluation of imidazole- and oxazole-containing synthetic lipoxin A4 mimetics (sLXms)” (Eur J Med Chem, 2019).
Activity calls are given as the source filed them. The rule behind the calls is not given here.

Legend:
[1] = target: T1, N-formyl peptide receptor 2 (Homo sapiens) (UniProt P25090); assay: Agonist activity at ALX/FPR2 in human THP1 cells harboring NF-kB-Luc assessed as inhibition of LPS-induced NFkB signalling activation by measuring TNFalpha secretion at 10^-12 M pretreated for 30 mins followed by LPS stimulation for 24 hrs by electrochemiluminescence assay (reference value: 100%); assay type: cell-based; parameters: scale not given: the % may be the effect or the level left
T1 sequence (whole entry): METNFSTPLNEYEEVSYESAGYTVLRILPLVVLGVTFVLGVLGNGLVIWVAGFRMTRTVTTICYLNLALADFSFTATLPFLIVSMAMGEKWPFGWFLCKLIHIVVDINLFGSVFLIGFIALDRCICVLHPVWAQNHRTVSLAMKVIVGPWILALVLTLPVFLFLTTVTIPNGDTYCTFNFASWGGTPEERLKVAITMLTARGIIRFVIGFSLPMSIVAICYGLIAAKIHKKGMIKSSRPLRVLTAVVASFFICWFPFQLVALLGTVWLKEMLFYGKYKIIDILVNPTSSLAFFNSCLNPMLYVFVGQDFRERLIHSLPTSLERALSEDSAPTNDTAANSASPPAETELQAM

[2] = system: THP-1; assay: Cytotoxicity against human THP1 cells harboring NFkB-Luc assessed as LDH release at 10'12 M after 24 hrs by spectrophotometric method relative to control; assay type: cell-based; conditions: thp-1, 24 h
[3] = target: T1, N-formyl peptide receptor 2 (Homo sapiens); assay: Agonist activity at ALX/FPR2 in human THP1 cells harboring NF-kB-Luc assessed as inhibition of LPS-induced NFkB signalling activation by measuring IL-12p70 secretion at 10^-12 M pretreated for 30 mins followed by LPS stimulation for 24 hrs by electrochemiluminescence assay (reference value: 100%); assay type: cell-based; parameters: scale not given: the % may be the effect or the level left
[4] = target: T1, N-formyl peptide receptor 2 (Homo sapiens); assay: Agonist activity at ALX/FPR2 in human THP1 cells harboring NF-kB-Luc assessed as inhibition of LPS-induced NFkB signalling activation by measuring IFNgamma secretion at 10^-12 M pretreated for 30 mins followed by LPS stimulation for 24 hrs by electrochemiluminescence assay (reference value: 100%); assay type: cell-based; parameters: scale not given: the % may be the effect or the level left
[5] = target: T1, N-formyl peptide receptor 2 (Homo sapiens); assay: Agonist activity at ALX/FPR2 in human THP1 cells harboring NF-kB-Luc assessed as inhibition of LPS-induced NFkB signalling activation by measuring IL-6 secretion at 10^-12 M pretreated for 30 mins followed by LPS stimulation for 24 hrs by electrochemiluminescence assay (reference value: 100%); assay type: cell-based; parameters: scale not given: the % may be the effect or the level left
[6] = target: T1, N-formyl peptide receptor 2 (Homo sapiens); assay: Agonist activity at ALX/FPR2 in human THP1 cells harboring NF-kB-Luc assessed as inhibition of LPS-induced NFkB signalling activation by measuring NF-kB activation level at 10^-12 M pretreated for 30 mins followed by LPS stimulation for 24 hrs by luciferase reporter gene assay; assay type: cell-based; parameters: scale not given: the % may be the effect or the level left
[7] = target: T1, N-formyl peptide receptor 2 (Homo sapiens); assay: Agonist activity at ALX/FPR2 in human THP1 cells harboring NF-kB-Luc assessed as inhibition of LPS-induced NFkB signalling activation by measuring IL-1beta secretion at 10^-12 M pretreated for 30 mins followed by LPS stimulation for 24 hrs by electrochemiluminescence assay (reference value: 100%); assay type: cell-based; parameters: scale not given: the % may be the effect or the level left
[8] = species: Homo sapiens; assay: Activation of Luc-fused NFkB (unknown origin) expressed in non-stimulated human THP1 cells assessed as relative luminescence unit at 10^-12 M after 24 hrs by luciferase reporter gene assay (reference value: 100%); assay type: cell-based
[9] = system: HEK293; assay: Induction of intracellular calcium accumulation in HEK293 cells at 2 nM by Fluo-4 dye based fluorescence spectrophotometric assay; assay type: functional, cell-based; conditions: Homo sapiens
[10] = target: T1, N-formyl peptide receptor 2 (Homo sapiens); assay: Agonist activity at ALX/FPR2 (unknown origin) expressed in HEK293 cells co-expressing Galphaq assessed as induction of intracellular calcium accumulation at 2 nM by Fluo-4 dye based fluorescence spectrophotometric assay; assay type: functional, cell-based

Activity [1] [%]	Activity [3] [%]	Activity [4] [%]	Activity [5] [%]	Activity [6] [%]	Activity [7] [%]	Activity [10]	Structure (SMILES)	fold change (FC) [2]	Activity [8] [%]	Activity [9]
64.2	62.9	83.9	61.1	80	39.7	–	CCCCC[C@@H](O)c1ccccc1/C=C/[C@@H](O)[C@@H](O)CCCC(=O)OC	0.9	2.9	–
–	–	–	–	–	–	Active	CSCC[C@H](NC(=O)[C@@H](NC(=O)[C@H](CCSC)NC(=O)[C@H](Cc1ccc(O)cc1)NC(=O)[C@H](CCCCN)NC(=O)[C@@H](N)Cc1c[nH]c2ccccc12)C(C)C)C(=O)O	–	–	inactive
